Blank lines part the entries; values can stand above or below the compound they belong to.
Assay: solvent given as SMILES

Structure (SMILES): COc1ccc(/C=C/C2=CC(/C=C/c3ccc(OC)c4ccccc34)=[O+][B-](F)(F)O2)c2ccccc12
fluorescence lifetime (in CC#N): 0.65 ns
fluorescence lifetime (in CC(C)=O): 1.03 ns
fluorescence lifetime (in CCOC(C)=O): 1.51 ns
fluorescence lifetime (in CCOCC): 1.34 ns
fluorescence lifetime (in ClC(Cl)(Cl)Cl): 1.18 ns
fluorescence lifetime (in ClCCl): 1.96 ns

Structure (SMILES): c1ccc(-c2nc(-c3ccccc3)nc(-c3cc(-n4c5ccccc5c5ccccc54)c(-n4c5ccccc5c5ccccc54)c(-n4c5ccccc5c5ccccc54)c3)n2)cc1
fluorescence lifetime (in O=P(c1ccccc1)(c1ccccc1)c1ccc2oc3ccc(P(=O)(c4ccccc4)c4ccccc4)cc3c2c1): 13.1 ns

Structure (SMILES): C[Si](C)(C)C#Cc1cccc2ccccc12
fluorescence lifetime (in C1CCCCC1): 9 ns

Structure (SMILES): c1ccc(N(c2ccccc2)c2ccc(-c3cccc4nc5ccccc5cc34)cc2)cc1
fluorescence lifetime (in CC#N): 6.83 ns
fluorescence lifetime (in CCCCCC): 1.95 ns
fluorescence lifetime (in CCOCC): 6.67 ns
fluorescence lifetime (in ClCCl): 14.5 ns

Structure (SMILES): c1ccc(-c2nc(-c3ccccc3)nc(-c3ccc(-n4c5ccccc5c5cc6c(cc54)C4c5ccccc5C6c5ccccc54)cc3)n2)cc1
fluorescence lifetime (in O=P(c1ccccc1)(c1ccccc1)c1ccccc1Oc1ccccc1P(=O)(c1ccccc1)c1ccccc1): 9 ns

Structure (SMILES): CCCCN1/C(=C\c2c(-c3ccc(N(C)C)cc3)c(=O)c2=O)C=Cc2ccccc21
fluorescence lifetime (in C1CCCCC1): 1.06 ns
fluorescence lifetime (in Cc1ccccc1): 2.99 ns
fluorescence lifetime (in ClCCl): 0.6 ns

Structure (SMILES): O=P1(c2ccccc2)C(c2cc(C(F)(F)F)cc(C(F)(F)F)c2)=Cc2c3ccc4cccc5ccc(c6cc(-c7ccccc7)n1c26)c3c45 (stereo not given)
fluorescence lifetime (in C1CCCCC1): 1.9 ns
fluorescence lifetime (in C1CCOC1): 3.1 ns
fluorescence lifetime (in C1COCCO1): 2.6 ns
fluorescence lifetime (in CC#N): 3.7 ns
fluorescence lifetime (in CC(C)=O): 3.6 ns
fluorescence lifetime (in CO): 3.8 ns
fluorescence lifetime (in Cc1ccccc1): 2.5 ns
fluorescence lifetime (in ClC(Cl)Cl): 2.4 ns
fluorescence lifetime (in ClCCl): 2.9 ns

Structure (SMILES): C(=C\c1ccc(-c2ccc(/C=C/c3ccc(-n4c5ccccc5c5ccccc54)cc3)s2)s1)/c1ccc(-n2c3ccccc3c3ccccc32)cc1
fluorescence lifetime (in C1CCOC1): 1.06 ns
fluorescence lifetime (in CC#N): 1.08 ns
fluorescence lifetime (in CC(C)=O): 1.08 ns
fluorescence lifetime (in CN(C)C=O): 1.08 ns
fluorescence lifetime (in Cc1ccccc1): 1.05 ns

Structure (SMILES): N#C/C(=C\c1ccc(C(F)(F)F)cc1)c1nc(-c2ccc(Cl)cc2)cs1
fluorescence lifetime (in CC#N): 1.2 ns

Structure (SMILES): COc1cc2c(cc1-c1cccs1)Cc1c3c(c4c(c1-2)-c1cc(OC)c(-c2cccs2)cc1C4)C(=O)N(CCC(C)C)C3=O
fluorescence lifetime (in C1CCOC1): 3.18 ns

Structure (SMILES): CCC1=C(C)C2=C(C)c3c(I)c(I)cn3[B-](F)(F)[N+]2=C1C
fluorescence lifetime (in C1CCCCC1): 0.259 ns
fluorescence lifetime (in CC(C)=O): 0.127 ns
fluorescence lifetime (in CCO): 0.125 ns
fluorescence lifetime (in CCOC(C)=O): 0.16 ns
fluorescence lifetime (in CO): 0.122 ns
fluorescence lifetime (in OCC(F)(F)F): 0.147 ns

Structure (SMILES): CC(C)(C)c1ccc(-c2c3c(c(-c4ccccc4)c4cc5ccccc5cc24)Cc2c(c(-c4ccccc4)c4cc5ccccc5cc4c2-c2ccc(C(C)(C)C)cc2)C3)cc1
fluorescence lifetime (in ClCCl): 2.67 ns

Structure (SMILES): CCOC(=O)CN1C(=O)C2=C(c3ccccc3)N(CC(=O)OCC)C(=O)C2=C1c1ccccc1
fluorescence lifetime (in CC#N): 6.7 ns
fluorescence lifetime (in CS(C)=O): 7.34 ns
fluorescence lifetime (in Cc1ccccc1): 5.93 ns

Structure (SMILES): N#Cc1c(-n2c3ccccc3c3cc(Br)ccc32)c(-n2c3ccccc3c3cc(Br)ccc32)c(C#N)c(-n2c3ccccc3c3cc(Br)ccc32)c1-n1c2ccccc2c2cc(Br)ccc21
fluorescence lifetime (in Cc1ccccc1): 0.4 ns

Other lines, results leading:

fluorescence lifetime (in C1CCOC1): 19 ns
fluorescence lifetime (in CC#N): 21 ns
fluorescence lifetime (in CCO): 14 ns
fluorescence lifetime (in CN(C)C=O): 15 ns
fluorescence lifetime (in CO): 11 ns
fluorescence lifetime (in CS(C)=O): 5.4 ns
Structure (SMILES): CSc1sc(C(N)=O)c2nnn(C)c(=O)c12

fluorescence lifetime (in ClCCl): 2.53 ns
Structure (SMILES): COc1ccc2cc(/C=C/C3=CC(c4ccccc4)=[O+][B-](F)(F)O3)ccc2c1

fluorescence lifetime (in ClC(Cl)Cl): 1.83 ns
Structure (SMILES): N#Cc1ccc(C#Cc2ccc(C#Cc3ccccc3C#N)cc2C#N)cc1

fluorescence lifetime (in ClC(Cl)Cl): 1.4 ns
Structure (SMILES): O=C1c2ccc3c4c(NC5CCCCC5)cc5c6c(ccc(c7c(NC8CCCCC8)cc(c2c37)C(=O)N1C1CCCCC1)c64)C(=O)N(C1CCCCC1)C5=O

fluorescence lifetime (in C1COCCO1): 6.06 ns
fluorescence lifetime (in CO): 0.13 ns
fluorescence lifetime (in CS(C)=O): 0.12 ns
Structure (SMILES): O=C1/C(=C2\Sc3ccc(S(=O)(=O)Nc4ccccc4)cc3C2=O)Sc2ccc(S(=O)(=O)Nc3ccccc3)cc21

fluorescence lifetime (in ClCCl): 0.85 ns
Structure (SMILES): COc1ccc2c(c1)c1cc(OC)ccc1c1c2c2c(C(=O)NC(C)(C)C)ccc(C(=O)NC(C)(C)C)c2c2c3ccc(OC)cc3c3cc(OC)ccc3c21

fluorescence lifetime (in CC#N): 2.48 ns
Structure (SMILES): O=c1oc2ccccc2cc1/C=C/c1ccccc1

fluorescence lifetime (in C1CCOC1): 0.33 ns
fluorescence lifetime (in CC#N): 0.22 ns
fluorescence lifetime (in ClC(Cl)Cl): 1.87 ns
fluorescence lifetime (in ClCCl): 2.04 ns
Structure (SMILES): COc1ccc2cc(-c3ccc([N+](=O)[O-])cc3)ccc2c1

fluorescence lifetime (in ClC(Cl)Cl): 0.706 ns
Structure (SMILES): Cc1ccc(C2=Cc3c4ccccc4c4ccccc4[n+]3[B-](F)(F)O2)cc1

fluorescence lifetime (in CC#N): 268 ns
Structure (SMILES): C=CC12N=N[C@](C=C)(C3C4CCC(C4)C31)C1[C@@H]3CC[C@@H](C3)[C@H]12 (stereo not given in full)

fluorescence lifetime (in ClCCl): 0.29 ns
Structure (SMILES): CC(C)(C)c1ccc2c(c1)c1cc(C(C)(C)C)ccc1n2-c1ccc(C#Cc2ccc3c4ccc(C#Cc5ccc(C=C(C#N)C#N)cc5)cc4n(-c4ccc(C(F)(F)F)cc4)c3c2)cc1

fluorescence lifetime (in C1CCCCC1): 3.3 ns
fluorescence lifetime (in ClCCl): 2.5 ns
Structure (SMILES): CC(C)[Si]1(C(C)C)c2cc(N(C)C)ccc2-c2ccc(C(F)(F)F)cc21

fluorescence lifetime (in C1CCOC1): 2.51 ns
fluorescence lifetime (in CS(C)=O): 1.6 ns
fluorescence lifetime (in ClC(Cl)Cl): 1.78 ns
fluorescence lifetime (in ClCCl): 2.56 ns
Structure (SMILES): COc1ccc(-c2nc(-c3ccccc3O)c(-c3ccccc3O)n2-c2ccc(C)cc2)cc1

From the Deep4Chem optical property database
